Assay [1] has as its target T1, human recombinant histamine H2 receptor (Homo sapiens, UniProt P25021).
T1 construct: expressed in transfected cells; host or cells: Chinese hamster ovary (CHO) K1 cells
Put plainly: Histamine H2 radioligand binding assay. Particulars: [125I]Aminopotentidine specific binding, read-out: Percentage Inhibition, Histamine Binding (1 μM) H2. As for the experimental part:
To evaluate in radioligand binding assays the activity of compounds of the invention, human recombinant histamine H2 receptor expressed in Chinese hamster ovary (CHO) K1 cells [Ruat, M., Proc. Natl. Acad. Sci. USA. (1990), 87(5):1658] in a 50 mM Phosphate buffer, pH 7.4 was used. Compounds of the invention were incubated with 0.1 nM [^125I]Aminopotentidine for 120 min. at 25° C. Non-specific binding was estimated in the presence of 3 μM Tiotidine. Receptor proteins were filtered and washed, the filters were then counted to determine [^125I]Aminopotentidine specifically bound. Compounds were screened at 1 μM or lower, using 1% DMSO as vehicle. Biochemical assay results are presented as the percent inhibition of specific binding in Table 2.

Assay [2] has as its target T2, human recombinant adrenergic α1D receptor (Homo sapiens, UniProt P25100).
T2 construct: expressed in transfected cells; host or cells: human embryonic kidney (HEK-293) cells
T2 sequence (P25100 1-572): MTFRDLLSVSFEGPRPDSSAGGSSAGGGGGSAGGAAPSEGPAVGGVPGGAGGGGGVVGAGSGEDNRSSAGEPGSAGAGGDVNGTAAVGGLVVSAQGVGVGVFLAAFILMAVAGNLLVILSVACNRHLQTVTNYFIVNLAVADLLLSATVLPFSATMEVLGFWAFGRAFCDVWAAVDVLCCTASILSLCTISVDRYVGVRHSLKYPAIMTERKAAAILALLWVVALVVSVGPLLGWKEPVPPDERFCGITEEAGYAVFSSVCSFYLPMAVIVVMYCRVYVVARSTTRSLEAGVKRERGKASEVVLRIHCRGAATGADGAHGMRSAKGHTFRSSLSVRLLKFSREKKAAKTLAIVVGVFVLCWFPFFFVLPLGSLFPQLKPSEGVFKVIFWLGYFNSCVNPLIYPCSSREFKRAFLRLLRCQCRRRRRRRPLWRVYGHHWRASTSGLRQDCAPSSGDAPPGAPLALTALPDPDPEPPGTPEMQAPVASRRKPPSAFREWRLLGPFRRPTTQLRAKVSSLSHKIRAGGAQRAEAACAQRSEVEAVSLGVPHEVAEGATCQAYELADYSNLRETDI
Put plainly: Adrenergic α1D radioligand binding assay. Particulars: [3H]Prozosin specific binding; for inhibition at 1 µM: read-out: Percent Inhibition of ligand binding, Adrenergic (1 μM ligand conc.) α1D; for inhibition at 0.1 µM: read-out: Percent Inhibition of ligand binding, Adrenergic (0.1 μM ligand conc.) α1D. Here is the method:
To evaluate in radioligand binding assays the activity of compounds of the invention, human recombinant adrenergic α1D receptor expressed in human embryonic kidney (HEK-293) cells [Kenny, B. A. et al. Br. J. Pharmacol. (1995), 115(6):981] in a 50 mM Tris-HCl buffer, pH 7.4, was used. Compounds of invention were incubated with 0.6 nM [^3H]Prozosin for 60 min. at 25° C. Non-specific binding was estimated in the presence of 10 μM phentolamine. Receptor proteins were filtered and washed, the filters were then counted to determine [^3H]Prozosin specifically bound. Compounds were screened at 1 μM or lower, using 1% DMSO as vehicle. Compounds of the invention were tested in this biochemical assay. Biochemical assay results for representative compounds were presented as the percent inhibition of specific binding in Table 3.

For assay [3], the target named is T3, human recombinant adrenergic α2B receptor (Homo sapiens, UniProt P18089).
T3 construct: expressed in transfected cells; host or cells: Chinese hamster ovary (CHO-K1) cells
T3 sequence (P18089 1-450): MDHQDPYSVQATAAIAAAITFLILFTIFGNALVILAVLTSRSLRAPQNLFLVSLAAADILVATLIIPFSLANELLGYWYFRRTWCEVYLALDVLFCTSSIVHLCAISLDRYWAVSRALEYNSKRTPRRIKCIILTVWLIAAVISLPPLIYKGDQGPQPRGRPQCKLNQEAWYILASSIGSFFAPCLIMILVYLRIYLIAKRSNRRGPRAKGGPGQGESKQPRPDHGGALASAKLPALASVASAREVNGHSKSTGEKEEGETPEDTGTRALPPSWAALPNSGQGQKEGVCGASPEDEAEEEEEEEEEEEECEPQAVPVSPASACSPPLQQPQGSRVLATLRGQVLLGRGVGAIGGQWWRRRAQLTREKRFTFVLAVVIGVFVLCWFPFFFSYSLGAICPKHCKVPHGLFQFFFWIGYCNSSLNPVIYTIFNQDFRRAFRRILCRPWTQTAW
Put plainly: Adrenergic α2B radioligand binding assay. Particulars: [3H]Rauwolscine specific binding; for inhibition at 1 µM: read-out: Percent Inhibition of ligand binding, Adrenergic (1 μM ligand conc.) α2B; for inhibition at 0.1 µM: read-out: Percent Inhibition of ligand binding, Adrenergic (0.1 μM ligand conc.) α2B. As for the experimental part: To evaluate in radioligand binding assays the activity of compounds of the invention, human recombinant adrenergic α2B receptor expressed in Chinese hamster ovary (CHO-K1) cells [Uhlen, S et al., Eur J Pharmacol. (1998), 343(1):93] in a modified Tris-HCl buffer (50 mM Tris-HCl, pH 7.4, 12.5 mM MgCl2, 1 mM EDTA, 0.2% BSA) was used. Compounds of the invention were incubated with 2.5 nM [^3H]Rauwolscine for 60 min. at 25° C. Non-specific binding was estimated in the presence of 10 μM Prozosin. Receptor proteins were filtered and washed, the filters were then counted to determine [^3H]Rauwolscine specifically bound. Compounds were screened at 1 μM or lower, using 1% DMSO as vehicle. Compounds of the invention were tested in this biochemical assay. Biochemical assay results for representative compounds were presented as the percent inhibition of specific binding in Table 3.

Assay [4] concerns the target T4, human recombinant serotonin (5-Hydroxytryptamine) 5-HT6 receptor (Homo sapiens, UniProt P50406).
T4 construct: expressed in transfected cells; host or cells: human HeLa cells
Put plainly: Serotonin 5-HT6 radioligand binding assay. Conditions: [3H]LSD specific binding, read-out: Percent Inhibition of ligand binding, Serotonin (1 μM ligand concentration) 5-HT6. Here is the method: To evaluate in radioligand binding assays the activity of compounds of the invention, human recombinant serotonin (5-Hydroxytryptamine) 5-HT6 receptor expressed in human HeLa cells [Monsma, F. J. Jr et al., Mol. Pharmacol. (1993), 43:320] in a modified Tris-HCl buffer (50 mM Tris-HCl, pH 7.4, 150 mM NaCl, 2 mM Ascorbic Acid, 0.001% BSA) was used. Compounds of the invention were incubated with 1.5 nM [3H]Lysergic acid diethylamide (LSD) for 120 min. at 37° C. Non-specific binding was estimated in the presence of 5 μM Serotonin (5-HT). Receptor proteins were filtered and washed, the filters were then counted to determine[3H]LSD specifically bound. Compounds were screened at 1 μM or lower, using 1% DMSO as vehicle. Biochemical assay results are presented as the percent inhibition of specific binding in Table 4.

T1 sequence (P25021 whole entry): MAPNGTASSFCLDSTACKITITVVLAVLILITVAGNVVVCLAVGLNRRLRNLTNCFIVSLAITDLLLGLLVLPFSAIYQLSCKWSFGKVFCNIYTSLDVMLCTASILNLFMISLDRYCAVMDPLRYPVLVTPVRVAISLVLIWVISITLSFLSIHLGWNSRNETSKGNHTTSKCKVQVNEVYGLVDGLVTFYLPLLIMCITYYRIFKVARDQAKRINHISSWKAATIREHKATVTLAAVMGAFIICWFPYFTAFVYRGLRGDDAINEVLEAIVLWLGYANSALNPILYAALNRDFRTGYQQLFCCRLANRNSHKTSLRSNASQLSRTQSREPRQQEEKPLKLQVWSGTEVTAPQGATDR
T4 sequence (P50406 whole entry): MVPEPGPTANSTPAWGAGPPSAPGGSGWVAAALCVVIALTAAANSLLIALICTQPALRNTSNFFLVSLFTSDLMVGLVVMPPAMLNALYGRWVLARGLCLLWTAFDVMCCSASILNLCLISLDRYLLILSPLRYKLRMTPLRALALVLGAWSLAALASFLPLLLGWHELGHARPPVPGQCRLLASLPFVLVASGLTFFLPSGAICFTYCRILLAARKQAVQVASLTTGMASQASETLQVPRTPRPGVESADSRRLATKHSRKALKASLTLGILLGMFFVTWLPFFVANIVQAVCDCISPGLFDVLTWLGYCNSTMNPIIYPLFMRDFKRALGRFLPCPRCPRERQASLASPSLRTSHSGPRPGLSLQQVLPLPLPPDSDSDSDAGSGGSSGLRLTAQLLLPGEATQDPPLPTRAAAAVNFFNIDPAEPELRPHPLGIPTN

Consider `COc1ccc(C(O)Cn2c3c(c4cc(C)ccc42)C2CCN(C3)C2)cc1F` (centres unmarked) [Compound 6], for which the inhibition at 1 µM in assay [1] is -5%; in assay [2] (1 μM), 28%; in assay [3], 73%; in assay [4], 22%.

As to `Cc1ccc2c(c1)c1c(n2CC(=O)N2CCCCC2)CN2CCC1C2` (centres unmarked) [Compound 7], the inhibition at 1 µM in assay [1] was -4%; in assay [2] (1 μM), -7%; in assay [3] it was 0%; in assay [4], 0%.

On to `Cc1ccc(C(O)Cn2c3c(c4cc(C)ccc42)C2CCN(C3)C2)cc1` (centres unmarked) [Compound 5], for which the inhibition at 1 µM in assay [1] was determined as 4%; in assay [2] (1 μM), 34%; in assay [3], 78%; in assay [4], 14%.

Regarding `Cc1ccc2c(c1)c1c(n2CC(=O)c2ccc(Cl)cc2)CN2CCC1C2` (centres unmarked) [Compound 29], the inhibition at 1 µM in assay [1] is 19%; in assay [2] (1 μM), 42%; in assay [3], 58%; in assay [4], 32%.

`COc1ccc(C(O)Cn2c3c(c4cc(C)ccc42)C2CCN(C3)C2)cc1OC` (centres unmarked) [Compound 8]: the inhibition at 1 µM is 2% in assay [1], 20% in assay [2] (1 μM), 34% in assay [3] and 11% in assay [4].

Take `Cc1ccc2c(c1)c1c(n2CC(O)c2ccc(F)cc2)CN2CCC1C2` (centres unmarked) [Compound 31]: the inhibition at 1 µM in assay [1] amounted to 5%; in assay [2] (1 μM), 34%; in assay [3], 79%; in assay [4], 46%.

On to `Cc1ccc2c(c1)c1c(n2CCc2ccncc2)CN2CCC1C2` (centres unmarked) [Compound 30], for which the inhibition at 1 µM in assay [1] stood at 18%; in assay [2] (1 μM) it was 40%; in assay [3], 76%; in assay [4], 33%.

As for `Cc1ccc2c(c1)c1c(n2CCc2ccc(C(F)(F)F)nc2)CN2CCC1C2` (centres unmarked) [Compound 1], the inhibition at 1 µM in assay [1] was determined as 0%; in assay [2] (1 μM) it was 51%; in assay [3], 7%; in assay [4], 10%.

Consider `Cc1ccc2c(c1)c1c(n2CCc2cncc(F)c2)CN2CCC1C2` (centres unmarked) [Compound 9], for which the inhibition at 1 µM in assay [1] amounted to 6%; in assay [2] (1 μM), 24%; in assay [3], 45%; in assay [4], 40%.

With `Cc1ccc2c(c1)c1c(n2CC(C)(O)c2ccc(F)cc2)CN2CCC1C2` (centres unmarked) [Compound 2], the inhibition at 1 µM in assay [1] is 8%; in assay [2] (1 μM) it was 15%; in assay [3], 84%; in assay [4] it was 58%.

As for `C/C(=C\n1c2c(c3cc(C)ccc31)C1CCN(C2)C1)c1ccc(F)cc1` (centres unmarked) [Compound 22], the inhibition at 1 µM came out at 15% in assay [1], 81% in assay [2] (1 μM), 95% in assay [3] and 102% in assay [4].

With `C/C(=C\n1c2c(c3cc(C)ccc31)C1CCN(C2)C1)c1ccc(Cl)cc1Cl` (centres unmarked) [Compound 33], the inhibition at 1 µM in assay [1] was determined as 35%; in assay [3], 73%; in assay [4] it was 35%. The inhibition at 0.1 µM in assay [2] was -6%; in assay [3], 9%. In addition, in assay [2] (1 μM), the “Percent Inhibition of ligand binding, Adrenergic (1 μM ligand conc.) α1D” value is reported as 28%.

Regarding `Cc1ccc2c(c1)c1c(n2CC(C)(O)c2ccc(F)c(Cl)c2)CN2CCC1C2` (centres unmarked) [Compound 18], the inhibition at 1 µM was determined as 16% in assay [1], 1% in assay [2] (1 μM), 107% in assay [3] and 49% in assay [4].

Consider `Cc1ccc2c(c1)c1c(n2CC(=O)c2ccc(F)cc2)CN2CCC1C2` (centres unmarked) [Compound 28], for which the inhibition at 1 µM was found to be 18% in assay [1], 49% in assay [2] (1 μM), 45% in assay [3] and 15% in assay [4].

For the compound `Cc1ccc2c(c1)c1c(n2CC(C)(O)c2ccc(Cl)c(Cl)c2)CN2CCC1C2` (centres unmarked) [Compound 13], the inhibition at 1 µM in assay [1] is 8%; in assay [2] (1 μM), 14%; in assay [3], 99%; in assay [4], 17%.

In the case of `Cc1ccc2c(c1)c1c(n2CC(O)c2ccccc2)CN2CCC1C2` (centres unmarked) [Compound 4], the inhibition at 1 µM came to 5% in assay [1], 54% in assay [2] (1 μM), 89% in assay [3] and 56% in assay [4].

On to `Cc1ccc2c(c1)c1c(n2CC(=O)N2CCC(C)CC2)CN2CCC1C2` (centres unmarked) [Compound 25], for which the inhibition at 1 µM was -4% in assay [1], -1% in assay [2] (1 μM), -17% in assay [3] and -2% in assay [4].

As to `Cc1ccc2c(c1)c1c(n2CC(=O)c2ccccc2)CN2CCC1C2` (centres unmarked) [Compound 21], the inhibition at 1 µM is -6% in assay [1], -4% in assay [2] (1 μM), 20% in assay [3] and 29% in assay [4].

As to `C/C(=C\n1c2c(c3cc(C)ccc31)C1CCN(C2)C1)c1ccc(Cl)cc1` (centres unmarked) [Compound 32], the inhibition at 1 µM in assay [1] stood at 82%; in assay [2] (1 μM) it was 80%; in assay [3], 98%; in assay [4], 97%. Further, the values for the inhibition at 0.1 µM in assay [2] and in assay [3] were 9% and 56%, respectively.

Values taken from patent US9271971B2, “Pyrido[3,4-B]indoles and methods of use” (Medivation Technologies, Inc., priority 2009, dated 2016).
